Data from patent US12655116B2, “Substituted isophthalic acid diamides” (Bayer Aktiengesellschaft, priority 2020, dated 2026).

Legend:
MATIN = test: Pre-emergence herbicidal action against MATIN; format: in vivo, Matricaria inodora; details: dosage 80 g/ha
How it was run: (§1)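 Pre-emergence soil-surface spray of formulated compound (WP or EC; 600 to 800 l/ha; 0.2% wetting agent) over seeds sown in sandy loam. After 3 weeks under greenhouse conditions, damage is estimated visually in percent against untreated plants.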

POLCO = test: Pre-emergence herbicidal action against POLCO; format: in vivo, Polygonum convolvulus
Description: Seeds of monocotyledonous and dicotyledonous weed plants and crop plants are laid out in sandy loam soil in wood-fiber pots and covered with soil. The compounds of the invention, formulated in the form of wettable powders (WP) or as emulsion concentrates (EC), are then applied to the surface of the covering soil in the form of an aqueous suspension or emulsion at a water application rate equivalent to 600 to 800 l/ha, with addition of 0.2% wetting agent. After the treatment, the pots are placed in a greenhouse and kept under good growth conditions for the trial plants. The damage to the test plants is scored visually after a test period of 3 weeks by comparison with untreated controls (herbicidal activity in percent (%): 100% activity=the plants have died, 0% activity=like control plants). […] The tables below illustrate, in an illustrative manner, the post-emergence herbicidal action of the compounds of the invention, the herbicidal activity being stated in percent.

AMARE [1] = test: Pre-emergence herbicidal action against AMARE; format: in vivo, Amaranthus retroflexus
How it was run: as §1

VIOTR = test: Pre-emergence herbicidal action against VIOTR; format: in vivo, Viola tricolor; details: dosage 80 g/ha
How it was run: as §1

DIGSA = test: Pre-emergence herbicidal action against DIGSA; format: in vivo, Digitaria sanguinalis
How it was run: as §1

ECHCG [2] = test: Pre-emergence herbicidal action against ECHCG; format: in vivo, Echinochloa crus-galli; details: 80 g/ha
How it was run: as §1

VERPE = test: Pre-emergence herbicidal action against VERPE; format: in vivo, Veronica persica; details: dosage 80 g/ha
How it was run: as §1

PHBPU = test: Post-emergence herbicidal action against PHBPU; format: in vivo, Pharbitis purpurea; details: dosage 20 g/ha
How it was run: (§2)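 Spray, one-leaf stage: WP or EC compound in water, 600–800 l/ha, 0.2% wetting agent. Plants held about 3 weeks in the greenhouse, then visually rated in percent of kill compared with untreated controls.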

ECHCG [3] = test: Post-emergence herbicidal action against ECHCG; format: in vivo, Echinochloa crus-galli
How it was run: as §2

SETVI [4] = test: Pre-emergence herbicidal action against SETVI; format: in vivo, Setaria viridis; details: dosage 80 g/ha
How it was run: as §1

AMARE [5] = test: Post-emergence herbicidal action against AMARE; format: in vivo, Amaranthus retroflexus; details: 20 g/ha, visual assessment about 3 weeks after treatment, 100% = plants have died, 0% = like control plants
How it was run: as §2

SETVI [6] = test: Post-emergence herbicidal action against SETVI; format: in vivo, Setaria viridis; details: dosage 20 g/ha
How it was run: as §2

ABUTH [7] = test: Pre-emergence herbicidal action against ABUTH; format: in vivo, Abutilon theophrasti; details: 80 g/ha, scored visually after 3 weeks vs untreated controls (100% = plants have died, 0% = like control plants)
How it was run: as §1

ABUTH [8] = test: Post-emergence herbicidal action against ABUTH; format: in vivo, Abutilon theophrasti; details: dosage 20 g/ha, visual assessment about 3 weeks after treatment vs untreated controls
How it was run: as §2

[9] = 80 g/ha, scored visually after 3 weeks vs untreated controls (100% = plants have died, 0% = like control plants)
[10] = 20 g/ha, scored visually after 3 weeks vs untreated controls, 100% = plants have died, 0% = like control plants

SMILES | Pre-emergence action against MATIN in % (MATIN) | Pre-emergence action against POLCO in % (POLCO; dosage 80 g/ha) | Pre-emergence action against AMARE in % (AMARE [1]; [9]) | Pre-emergence action against VIOTR in % (VIOTR) | Pre-emergence action against POLCO in % (POLCO; dosage 20 g/ha) | Pre-emergence action against DIGSA in % (DIGSA; dosage 80 g/ha) | Pre-emergence action against AMARE in % (AMARE [1]; [10]) | Pre-emergence action against ECHCG in % (ECHCG [2]) | Pre-emergence action against VERPE in % (VERPE) | Post-emergence action against PHBPU in % (PHBPU) | Post-emergence action against ECHCG in % (ECHCG [3]; dosage 5 g/ha) | Post-emergence action against ECHCG in % (ECHCG [3]; dosage 20 g/ha) | Pre-emergence action against SETVI in % (SETVI [4]) | Post-emergence action at 20 g/ha against AMARE in % (AMARE [5]) | Post-emergence action against SETVI in % (SETVI [6]) | Pre-emergence action against DIGSA in % (DIGSA; dosage 20 g/ha) | Pre-emergence action against ABUTH (herbicidal activity) (ABUTH [7]) | Post-emergence action against ABUTH in % (ABUTH [8])
CCn1nnnc1NC(=O)c1ccc(C(F)(F)F)c(C(=O)NCCSC)c1C [Example 2-35] | 80% | 80% | 90% |  |  |  |  |  |  |  |  |  |  |  |  |  |  | 
CCn1nnnc1NC(=O)c1ccc(C(F)(F)F)c(C(=O)NCc2cccs2)c1Cl [Example 2-144] | 90% | 90% | 100% | 90% | 80% | 100% | 80% | 80% | 100% | 80% |  |  |  |  |  |  |  | 
Cc1nnc(NC(=O)c2ccc(C(F)F)c(C(=O)NC3CC3)c2Br)o1 [Example 6-166] | 100% | 80% | 100% | 100% |  | 100% | 90% | 80% |  |  | 80% | 90% | 100% | 90% | 100% | 80% | 100% | 80%
Cc1nnc(NC(=O)c2ccc(C(F)F)c(C(=O)NCC(F)F)c2Br)o1 [Example 6-169] | 80% | 100% | 100% |  |  | 90% | 90% | 90% |  |  | 80% | 90% | 100% | 90% | 90% |  | 90% | 
